Consider one compound from patent publication US20080064705A1, “Theophylline-based nitophenylpiperazine derivatives for enhancing aortic smooth muscle relaxation” (KAOHSIUNG MEDICAL UNIVERSITY, priority 2006, published 2008).

One test deals with rat aortic rings. In words: Relaxation of precontracted isolated rat aortic rings (isometric tension, organ bath). To be noted: for pEC50 of vasorelaxation: precontracted with PE 10 μM, cumulative 1 nM-100 μM. The procedure: The aortic rings were prepared as follows. 24 Rats (200-300 g) were killed under mild anesthesia with ether, and their aortas were quickly excised.
Isometric tension was recorded with a force displacement transducer (Grass, Model FT03, Quincy, Mass.). The endothelium layer was removed mechanically by inserting the tip of a pair of forceps into the lumen and rolling the tissue back and forth several times on a paper towel moistened with physiological salt solution. At the beginning of each experiment, aortic rings were stretched to a resting tension of 1.5 g and then contracted with phenylephrine (PE, […]), and once the contractions had reached a plateau, the endothelial integrity of the preparations (abbreviated as endothelium-intact in the following) or absence of endothelium (abbreviated as E^− in the following) was verified by adding ACh ([…]) to the superfusate. […] The preparations were then washed and allowed to equilibrate with Krebs solution for 45 minutes before being contracted a second time with PE. When the stable vasoconstriction to PE (10 μM) was reached, concentration-response curves to KMUP-3 and KMUP-4 (1 nM-100 μM) were constructed. Additionally, aortic rings were preconstricted with 80 mM KCl. When the contraction reached a steady state, cumulative concentration-response curves to KMUP-3 and KMUP-4 (1 nM-100 μM) were determined. In this experiment, the high-K^+ solution was prepared by replacing NaCl with KCl (80 mM) in an equimolar amount.

Another test relates to cGMP levels in RASMCs. In words: Intracellular cGMP levels in RASMCs (radioimmunoassay). It is filed as cell-based, rat. Here is the method: (§1) Rat aortic smooth muscles were obtained as sterile surgical specimens. The tissue was washed and cut into 1- to 2-mm pieces and placed into culture dishes with Dulbecco modified Eagle medium (DMEM) containing 20% fetal bovine serum (FBS), 100 U/mL penicillin G, […], and 2 mM glutamine. After these explants attached to the culture dish, usually in 1 to 2 days, DMEM supplemented with 10% FBS, penicillin, streptomycin, and glutamine was added. Rat aortic smooth muscle cells (RASMCs) migrated from the explants in 3-5 days. At this time, the explants were removed, and cells were allowed to achieve confluence. Cells were detached using 0.05% trypsin and 0.02% EDTA at 37° C. for 5 minutes to establish secondary cultures. Cultures were maintained for no more than 4 passages. To exclude contamination by endothelial cells and fibroblasts, the cell homogeneity was further confirmed by the presence of smooth muscle-specific α-actin and α-myosin. Indirect immunofluorescence staining for a variety of antigens was carried out by first plating the cells on chamber slides, fixing the cells in 3.7% formaldehyde in phosphate-buffered saline for 10 minutes, and then permeabilizing the cells with phosphate-buffered saline plus 0.1% Triton X-100. Cells were stained with a mouse monoclonal antibody directed against the amino-terminal 10 amino acids of a-smooth muscle actin and α-myosin (Boehringer Mannheim, Indianapolis, Ind.). All were stained with fluoresceinlabeled goat anti-mouse IgG antibody.
(§2) Intracellular cGMP and cAMP levels in RASMCs were described previously (Wu B N, Lin R J, Lin C Y, et al., Br J Pharmacol., 134, 265-274, 2001). In brief, cells were grown in 24-well plates (10^5 cells/well). At confluence, monolayer cells are washed with phosphate buffer solution (PBS) and then incubated with KMUP-3, KMUP-4, or other PDE inhibitors (10 or 100 μM) for 20 minutes. Incubation is terminated by the addition of 10% trichloroacetic acid (TCA). Cell suspensions are sonicated and then centrifuged at 2500 g for 15 minutes at 4° C. To remove TCA, the supernatants are extracted 3 times with 5 volumes of water-saturated diethyl ether. Then, the supernatants are lyophilized, and cGMP or cAMP of each sample is determined by using commercially available radioimmunoassay kits (Amersham Pharmacia Biotech, Buckinghamshire, England).

In a further test the target is PDE5 (Homo sapiens, UniProt O76074). The arrangement: dose or concentration left out as unconfirmed. Particulars: n=3. The procedure:
(§3) PDE activities were determined by the method of Hidaka and Asano (Hidaka H, Asano T., Biochim Biophys Acta., 429, 485-497, 1976). Washed human platelets were used for both PDE3 and PDE5 analyses, and human U937 cells for PDE4. Purified protein containing PDE3, PDE4, or PDE5 enzyme was resuspended in 50 mM Tris-HCl containing 5 mM MgCl2 (pH 7.5). […] After 20 minutes at 37° C., the samples were heated to 100° C. for 2 minutes. Ophiophagis Hannah snake venom (10 mg/mL, […]) was then added and incubated at 37° C. for 10 minutes to convert the 5′-GMP and 5′-AMP to the uncharged nucleosides guanosine and adenosine, respectively. An ion-exchange resin ([…]) was added to bind all unconverted cGMP or cAMP. After centrifuging, the supernatant was removed for determination of radiolabeled guanosine or adenosine by a liquid scintillation counter.

For the next test, the target named is PDE3 (Homo sapiens, UniProt Q14432). The arrangement: dose or concentration left out as unconfirmed. To be noted: n=3. Here is the method:
as §3

In another test the test system is PDE4. In words: PDE4 enzyme inhibitory activity (method of Hidaka and Asano). Type of test: biochemical, human. To be noted: n=3. The arrangement: dose or concentration left out as unconfirmed. Here is the method:
as §3

The test system of a further test is cAMP levels in RASMCs. Nature of the test: Intracellular cAMP levels in RASMCs (radioimmunoassay). Type of test: cell-based, rat. Here is the method: as §1, §2
(In general: Changes in cAMP serve as a functional read-out for many G protein-coupled receptors.)

A further test relates to eNOS in HUVECs. Nature of the test: eNOS protein expression in HUVECs (Western blot, densitometry). Type of test: cell-based, human. Here is the method: Human umbilical vein endothelial cells (HUVECs, American Type Culture Collection, Rockville, Md.) were cultured in F12 nutrient mixture medium supplemented with 10% FBS, 1.6 mM L-glutamine, […] endothelial cell growth supplement, 100 U/mL penicillin, […], and 10 U/mL heparin. HUVECs of passages 3-5 were used for all experiments.
Endothelial cells were processed, and eNOS protein abundance was determined by Western blot analysis using anti-eNOS antibody (BD Transduction Laboratories, San Diego, Calif.) in a manner that was similar to that described in our previous study.
A general note: Immunoblotting shows a protein as a band on a membrane.

PDE3, sequence (Q14432 whole entry): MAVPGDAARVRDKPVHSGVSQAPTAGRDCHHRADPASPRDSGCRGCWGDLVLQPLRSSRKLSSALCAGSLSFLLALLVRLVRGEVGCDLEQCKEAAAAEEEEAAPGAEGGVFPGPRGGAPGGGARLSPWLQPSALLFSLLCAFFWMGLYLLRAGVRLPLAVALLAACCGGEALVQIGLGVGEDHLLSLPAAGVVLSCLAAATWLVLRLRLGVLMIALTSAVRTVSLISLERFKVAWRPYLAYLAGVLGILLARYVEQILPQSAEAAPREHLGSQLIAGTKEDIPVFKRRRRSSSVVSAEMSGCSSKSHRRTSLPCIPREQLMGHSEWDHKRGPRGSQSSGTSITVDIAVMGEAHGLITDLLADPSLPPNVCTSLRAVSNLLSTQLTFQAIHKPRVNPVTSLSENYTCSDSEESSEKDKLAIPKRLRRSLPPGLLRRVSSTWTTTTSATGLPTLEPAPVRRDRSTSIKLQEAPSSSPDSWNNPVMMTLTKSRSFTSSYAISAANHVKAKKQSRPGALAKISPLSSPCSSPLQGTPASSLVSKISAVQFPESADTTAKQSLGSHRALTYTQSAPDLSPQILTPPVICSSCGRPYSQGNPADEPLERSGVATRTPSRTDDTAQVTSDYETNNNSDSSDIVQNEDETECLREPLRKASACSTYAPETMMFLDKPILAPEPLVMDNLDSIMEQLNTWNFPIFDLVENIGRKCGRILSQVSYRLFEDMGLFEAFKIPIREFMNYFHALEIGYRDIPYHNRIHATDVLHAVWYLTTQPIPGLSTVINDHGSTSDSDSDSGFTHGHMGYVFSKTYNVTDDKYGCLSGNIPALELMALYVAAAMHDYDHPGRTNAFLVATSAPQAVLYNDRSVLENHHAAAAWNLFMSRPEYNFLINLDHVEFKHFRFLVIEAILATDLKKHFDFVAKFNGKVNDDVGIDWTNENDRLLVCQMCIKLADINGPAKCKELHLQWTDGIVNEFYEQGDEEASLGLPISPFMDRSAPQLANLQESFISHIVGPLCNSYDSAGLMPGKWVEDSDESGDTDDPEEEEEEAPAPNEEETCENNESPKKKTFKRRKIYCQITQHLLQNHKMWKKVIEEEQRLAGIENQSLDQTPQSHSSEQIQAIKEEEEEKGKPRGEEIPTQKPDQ

Take `Cn1c(=O)c2c(ncn2CCN2CCN(c3ccccc3[N+](=O)[O-])CC2)n(C)c1=O` [KMUP-4, 7-[2-[4-(2-nitrobenzene)piperazinyl]ethyl]-1,3-dimethylxanthine]: in the test on rat aortic rings (1 μM pretreatment, endothelium-denuded rings, PE 10 μM), the “effect on potency of isoproterenol or SNP (concentration-response curve shift)” value is “markedly increased the potency”. Moreover, in the test on rat aortic rings (E- rat thoracic aorta, L-NAME 100 μM), the “inhibition of relaxation by L-NAME” value is recorded as “do not exhibit any significant inhibition”. For the same compound, in the test with rat aortic rings (E- rat thoracic aorta, ODQ 1 μM, SQ 22536 100 μM), the “relaxations in presence of ODQ or SQ 22536” value is listed as “attenuated”. Moreover, the “vasorelaxations at high concentrations in presence of 4-AP and TEA” value in the test on rat aortic rings (concentrations up to 30 and 100 μM, 4-AP and TEA respectively, endothelium-intact) is “not significantly affected”. The “maximal relaxation (Emax)” value with rat aortic rings (endothelium-denuded (E-) condition, PE 10 μM) came out at 99±4.3%. Further, the pEC50 of vasorelaxation in the test on rat aortic rings (endothelium-denuded aorta (E-)) was 5.94±0.09; in the test on rat aortic rings (endothelium-intact aorta), 6.45±0.12. The “vasorelaxations with ODQ combined with SQ 22536” value in the test on rat aortic rings (endothelium-intact or endothelium-denuded aortic rings) is given as “additive effect to diminish the vasorelaxations”. Moreover, the “vasorelaxant responses after pretreatment with L-NAME, ODQ, SQ 22536 or indomethacin” value in the test on rat aortic rings (endothelium-intact rat thoracic aorta, L-NAME 100 μM, ODQ 1 μM, SQ 22536 100 μM, indomethacin 10 μM) is given as “reduced”. In addition, in the test on rat aortic rings (endothelium-intact rings precontracted with 80 mM K+, 1 nM-100 μM), the “relaxation in the presence of 80 mM K+ solution versus PE” value is “great reduction of relaxation”. For the same compound, the “aortic relaxations in presence of K+ channel blockers” value with rat aortic rings (endothelium-intact, PE 10 μM, TEA 10 mM, glibenclamide 1 μM, 4-AP 100 μM, apamin 1 μM, ChTX 0.1 μM) is “reduced”. Further, the “cGMP (fmol/10^5 cells)” value came to 55.28 ± 5.69 fmol/10^5 Cells with cGMP levels in RASMCs (Table 1, 100 μM of test agent, RASMCs, 20 minutes); 55.35 ± 5.60 fmol/10^5 cells with cGMP levels in RASMCs (Table 2, 100 μM of test agent alone); 32.10 ± 2.63 fmol/10^5 cells in the test with cGMP levels in RASMCs (Table 2, 100 μM of test agent plus ODQ (10 μM)); 81.24 ± 6.90 fmol/10^5 cells in the test on cGMP levels in RASMCs (Table 3, SNP (100 μM) plus agent (100 μM)); 55.10 ± 5.59 fmol/10^5 cells in the test with cGMP levels in RASMCs (Table 3, agent alone, 100 μM). For the same compound, the “enzyme inhibitory activity for PDE5” value on PDE5 was determined as 15±3.1%. Also, at PDE3, the “enzyme inhibitory activity for PDE3” value turned out to be 56±2.8%. Further, the “enzyme inhibitory activity for PDE4” value in the test on PDE4 is 33±1.7%. Further, the “cAMP (pmol/10^5 Cells)” value in the test on cAMP levels in RASMCs (Table 1, 10 μM of test agent, RASMCs, 20 minutes) was 15.42 ± 1.63 pmol/10^5 Cells; in the test on cAMP levels in RASMCs (Table 2, 10 μM of test agent alone), 15.54 ± 1.60 pmol/10^5 Cells; with cAMP levels in RASMCs (Table 2, 10 μM of test agent plus SQ 22536 (100 μM)) it was 9.69 ± 0.75 pmol/10^5 Cells. Moreover, the “time at which maximal eNOS protein expression was achieved” value in the test with eNOS in HUVECs (0.1 μM) is 18 h. In the test on eNOS in HUVECs (0.1 μM (also 0.1 mM in source), 18 hours), the “expression of eNOS protein” value is “significantly increased”.
